The text below walks through data of article PMC8533299, “Synthesis, In Silico Study, and Anti-Cancer Activity of Thiosemicarbazone Derivatives” (Biomedicines, 2021).

In general, IC50 refers to the midpoint of a concentration-inhibition curve. High values mean a need for much substance, low ones inhibition by little substance.

This assay concerns MCF-7 (Human breast cancer). As to the kind of experiment: MTT test on MCF-7 cells. It is filed as cell-based. Conditions: MCF7, till 48 h. How it is done: The in vitro anticancer activities of the synthesized compounds were conducted using different cancerous and non-cancerous cell lines viz B16-F0 (Mouse melanoma), mouse Ehrlich Ascites Carcinoma (EAC), MCF-7 (Human breast cancer), MCF-10A (Human breast epithelial cells), and NIH/3T3 (Mouse fibroblast cells). All cell lines were procured from the National Centre for Cell Science, Pune, India. The procured cells were cultured in a six-well culture plate with Dulbecco’s Modified Eagle’s Medium (DMEM) supplemented with 10% fetal bovine serum in a humid CO2 incubator with 5% carbon dioxide at 37 °C.
The anti-cancer effect and cytotoxicity of both 3-MBTSc and 4-NBTSc compounds were evaluated against different cancerous (MCF-7, EAC, B16-F0 cells) and noncancerous cells (MCF-10A, NIH-3T3 cells) using MTT test. In brief, the stock solutions of both the tested compounds were prepared by dissolving 1 mg of each compound in 1 mL of DMSO separately. Then, four different concentrations (5, 10, 12, and 20 µg/mL) of both compounds were used during the test along with the negative control. Also, 10 μg/mL of doxorubicin (Dox) was used as the positive control during the experiment. Both untreated and treated cells were incubated for next 24 and 48 h. Then, all the steps during the whole experiment were carried out by our earlier reported procedure. Later, the absorbance values were measured by an ELISA reader (Biorad, Hercules, CA, USA) at 570 nm wavelength using secondary wavelength as a reference at 620 nm and the percentages of cell viability was calculated using the following formula [59, 60, 61]. Cell viability (%)= Mean absorbance of treated cells/Mean absorbance of untreated cells × 100
Based on the cell viability data, the IC50 values of both compounds were calculated on different cancer cells by plotting their corresponding dose-responsive graphs.
The obtained data were statistically analyzed. The descriptive analysis was done and the IC50 values were calculated by fitting the sigmoidal dose responsive graph using GraphPad Prism (GraphPad Software, Inc., La Jolla, CA, USA). […]
A general note: Tetrazolium dyes change colour on reduction, which living cells bring about.

In brackets after ≈: the same amount, converted by molar mass.

Turning to `COc1cccc2c1C(=O)c1c(O)c3c(c(O)c1C2=O)C[C@@](O)(C(=O)CO)C[C@@H]3O[C@H]1C[C@H](N)[C@H](O)[C@H](C)O1` [DOX, doxorubicin, reference compound], it took 3.162 ± 0.018 µg/mL (≈ 5.82 µM) to reach half-maximal inhibition (IC50).
